The source of these data is patent EP0334369B1, “Antiarteriosclerotic agent” (DAIICHI PHARMACEUTICAL CO., LTD., priority 1988, dated 1989).

This assay deals with Vascular smooth muscle cells (VSMC). The experiment in a line: Determination of DT (time required for doubling the number of cells) of vascular smooth muscle culture cells. Format: cell-based. As to conditions: Treated Group; VSMC from aorta of SHR, 48-hour cultivation with Compound A; concentration not given; P < 0.02 vs. control group by Student's t-test; hydrate. On the procedure: Effects on Proliferation of Vascular Smooth Muscle Culture Cells Vascular smooth muscle cells (hereinafter referred to as VSMC) were separated from the aorta of seven 7-week-old male SHR and cultured according to the explant method [cf. Ross, R.J. Cell Biol., Vol. 50, 172 (1971)]. Culture cells of passage Nos. 4 to 10 were used for testing. The proliferation ability of VSMC was evaluated in terms of time required for doubling the number of the cells (hereinafter referred to as DT) and ³H-TU according to the following test methods. 1) Determination of DT: VSMC (about 5 x 10⁴ cells) were cultured on a plate for 24 hours. Compound A was added to the culture, and cultivation was continued for an additional period of 48 hours. The number of cells before the addition of Compound A and after the 48-hour cultivation were counted by means of a light microscope, and DT was obtained therefrom by the equation: [formula] wherein t₁ is the time at which the number of cells before addition of Compound A is counted; t₂ is the time at which the number of cells after addition of Compound A is counted; N₁ is the number of cells at t₁; and N₂ is the number of cells at t₂.

SMILES strings stand for the structures. Values joined by “and” are separate entries in the source; they are usually repeats but may differ in a detail not shown here. Equal values may be shown once. Where a name gives a salt, the structure may show the parent alone.

On to `O=C(O)c1ccc2c(c1)CCC(Cn1ccnc1)C2` (stereo not shown) [Compound A, 6-(1-Imidazolylmethyl)-5,6,7,8-tetrahydro-2-naphthalenecarboxylic acid hydrochloride 1/2 hydrate], for which the DT was 26.16 h and 27.81 h and 26.59 h and 28.94 h and 21.66 h and 24.41 h.
